Test [1] deals with A549 cells. In words: Micropipette-mediated delivery of payloads to A549 cells (uptake). It counts as cell-based, human. As to conditions: 24-well plates. As to the method:
FIG. 19 is a graph illustrating Micropipette-mediated delivery of payloads in either 200 μl or 20 μl delivery solution to A549 cells in 24-well plates. Uptake efficiency was measured by flow cytometry (5% m bar) and toxicity was measured by lactate dehydrogenase (LDH) release compared to lysed cells positive control.
Cells were seeded into 24-well plates on Day 0 such that they were 80-90% confluent on Day 1 when delivery was carried out. […] Cells were incubated for 2 min at room temperature (RT) to facilitate uptake. To further facilitate uptake and prevent cell dehydration, 200 μl 0.5×-PBS was then added and cells were incubated for a further 30 sec. This solution was then removed and 400 μl culture medium was added. The cells were then analyzed by fluorescence microscopy.

The test system of another test is cells. Kind of test: Delivery of molecules to cells, spray apparatus versus micropipette (Examples 2-12). The test is classed as cell-based. From the text: Delivery of Molecules. An intranasal mucosal atomization device commercially available from LMA Teleflex of NC, USA under catalogue number MAD300 and including an atomizer emitter was set up as follows: the atomizer emitter was positioned 31 mm from the base of the 24-well plate and above the center point of each circular well of the plate. The atomizer emitter was adjusted to allow a pressure of 1.5 bar. A timer was utilized to dispense spray from the atomizer emitter for a period of 1 second. The atomizer emitter was primed by rinsing three times with Solution A containing molecules to be delivered.
Each well of the plate was treated as follows: cell culture medium was removed from the well using a micropipette. Optionally, the well was rinsed twice with 250 μL phosphate buffered saline (PBS) using a micropipette. 20 μL of Solution A containing molecules to be delivered was delivered to the cells using the atomizer. The plate was incubated at room temperature for a period of 30 seconds to 2 minutes depending on the size of the molecule to be delivered, following which 250 μL of Solution B was added to the well using a micropipette. The plate was then incubated at room temperature for 30 seconds, at which time Solution B was removed from the well using a micropipette. 500 μL of culture medium was added to the well using a micropipette. […]
Fluorescence Microscopy. […] Following delivery, the plate was placed onto the stage of a fluorescent microscope (Olympus CKX 41) and the cells were viewed using filters to visualize fluorescence. […]
Flow Cytometry. […] The cell suspension was loaded into a flow cytometer [Accuri Flow Cytometyer, BD Biosciences] and the fluorescence was analyzed according to manufacturer's instruction.
Cell Viability. Following delivery, cell viability was assessed using the CellTiter 96® AQueous One Solution Cell Proliferation Assay (MTS) (Promega) according to the manufacturer's instructions. […] 100 μL of solution was removed from the well and placed into a 96-well plate and absorbance was read at 450 nm using a GloMax 96 Microplate luminometer [Promega].

For test [2], the system named is A549 cells. Kind of test: Incubation of A549 cells in S Buffer (Medepalli conditions). As to conditions: 5 min at 4° C. The test is classed as cell-based, human. From the text:
A vector-free delivery method was developed based on reversible permeabilisation that would facilitate delivery of payloads into cells in a manner that would retain cell viability and payload functionality. As other groups have done, the following hypothesis was utilized: firstly, permeabilisation could be induced by chemical modification of the cell membrane; secondly, delivery could be enhanced via osmotic pressure brought about by using a hypotonic delivery solution whereby influx of water into the permeabilised cells facilitated influx of a payload and thirdly, cell survival could be enhanced if the hypotonic delivery solution was also buffered and physiological. Based on initial observations, further hypotheses were developed and refined as described later here. For chemical permeabilisation, the most common permeabilising agents are detergents which interact with certain components in cell membranes to create holes (Hapala, I., Crit Rev. Biotech. 1997; 17(2): 105-22). […] (Medepalli K. et al., Nanotechnology 2013; 24(20)). In some examples, potassium acetate is replaced with ammonium acetate in the “S” buffer. They also stated that delivery could be enhanced by adding saponin to the solution. […] Organic solvents such as alcohols can permeabilise cells by dissolving lipid from the cell membrane. […]

Another test deals with CHO cells. In words: Spray delivery of labelled proteins into CHO cells. It counts as cell-based, Chinese hamster. The note with it: for delivery of labelled protein into cells: FITC or Alexa-488 label. From the text: A notable application of delivery technology is the intracellular delivery of proteins. Proteins are a very diverse group in terms of their size, shape and chemistry and few methods are currently available for efficient delivery of these molecules. A broad range of proteins of increasing sizes from 18.3 kDa to 443 kDa were labeled with either FITC or Alexa-488 and their delivery by spraying was examined. […] A general trend towards declining delivery efficiencies with increasing size of protein (FIG. 44) was observed.

The test system of a further test is Jurkat cells. Kind of test: Spray delivery into Jurkat suspension cells. It counts as cell-based. The note with it: spray after removal of supernatant.
The test system of test [3] is A549 cells. Kind of test: Spray-mediated delivery of payloads to A549 cells (fluorescence microscopy, flow cytometry). The test is classed as cell-based, human. Background: A flow cytometer gives signals particle by particle.
Description: Each well of the plate was treated as follows: cell culture medium was removed from the well using a micropipette. Optionally, the well was rinsed twice with 250 μL phosphate buffered saline (PBS) using a micropipette. 20 μL of Solution A containing molecules to be delivered was delivered to the cells using the atomizer. The plate was incubated at room temperature for a period of 30 seconds to 2 minutes depending on the size of the molecule to be delivered, following which 250 μL of Solution B was added to the well using a micropipette. The plate was then incubated at room temperature for 30 seconds, at which time Solution B was removed from the well using a micropipette. 500 μL of culture medium was added to the well using a micropipette. The cells were then returned to a humidified atmosphere with 5% CO^2 at 37° C.
Fluorescence Microscopy. Fluorescein isothiocyanate (FITC)- and DyLight Phosphoramidite (DY547)-labelled molecules were used in accordance with the manufacturer's instructions. Labelled molecules to be delivered to the cells were added to Solution A and delivered to cells as described above herein. Following delivery, the plate was placed onto the stage of a fluorescent microscope (Olympus CKX 41) and the cells were viewed using filters to visualize fluorescence. Photomicrographs were acquired.
Flow Cytometry. […] The cell suspension was loaded into a flow cytometer [Accuri Flow Cytometyer, BD Biosciences] and the fluorescence was analyzed according to manufacturer's instruction. […]
[4] abbreviates: DAPI, phallotoxin and MitoTracker Red together.

The record followed here is US12195748B2, “Delivery across cell plasma membranes” (Avectas Limited, priority 2014, dated 2025).

Entries after “also recorded” stand apart in the source; their conditions may differ.

Description for Jurkat cells: In this example, the delivery method across cell types was evaluated. […] The cell suspension was placed into a porous cell culture plate insert and a brief gentle vacuum of approximately −0.5 to −0.68 bar was applied for 20-45 sec to remove supernatant before the cells were sprayed (FIG. 41A and FIG. 42).

Consider `CC[N+](C)(CC)CCC[n+]1c(-c2ccccc2)c2cc(N)ccc2c2ccc(N)cc21.[I-].[I-]` [PI, propidium iodide], for which the “uptake viewed by fluorescent microscopy” value in the test on A549 cells [1] (20 μL delivery solution) is “apparent at the edge of the well but not in the center; also recorded: apparent in some areas of the well but not in others”; in the test on A549 cells [1] (200 μL delivery solution), “most cells immediately stained positive”; in the test on A549 cells [1] (200 μL delivery solution, listed as Propidium iodide), “uptake was visible throughout the cell population”. Besides, the “delivery rate (percent of cells showing successful delivery), spray compared to micropipette” value in the test with cells (Example 3, 150 μM, 20 or 40% ethanol) is “increases the delivery rate”. In addition, in the test on cells (Example 3, micropipette, 40% (v/v) ethanol), the “delivery in viable cells” value is given as “no delivery of molecules was detected in viable cells”. Besides, the “simultaneous delivery of two molecules into the cell” value in the test on cells (Example 4, spray, 25% ethanol, same matrix) is given as “results in delivery of the molecule into the cell”.

Turning to dextran, the uptake result in the test with A549 cells [2] was “did not observe uptake”.

For “ovalbumin: protein labelled with FITC and delivered into CHO cells”, the “delivery of labelled protein into cells” value with CHO cells is “successfully delivered”. For the same molecule, the “detection of delivered protein with anti-ovalbumin antibody” value in the test with CHO cells (immunofluorescence) was “detected by immunofluorescence”.

Turning to `N=C(N)c1ccc(-c2cc3ccc(C(=N)N)cc3[nH]2)cc1` [DAPI, 4′,6-diamidino-2-phenylindole], the “delivery to suspension cells” value in the test with Jurkat cells is recorded as “successfully delivered”. Moreover, the co-delivery into cells entry with A549 cells [3] (10-kDa dextran-Alexa488 and DAPI together) was “successfully co-delivered”; with A549 cells [3] (setting [4]) it was “successfully co-delivered”.

In the case of `ClCc1ccc(C2=c3cc4c5c(c3Oc3c2cc2c6c3CCCN6CCC2)CCC[N+]=5CCC4)cc1.[Cl-]` [MitoTracker Red], the “delivery to suspension cells” value with Jurkat cells is recorded as “successfully delivered”. In the test with A549 cells [3] (setting [4]), the co-delivery into cells entry is “successfully co-delivered”.

B1: catalase: protein labelled with FITC and delivered into CHO cells (protein, UniProt P00432 2-527, looked up)
Catalase: ADNRDPASDQMKHWKEQRAAQKPDVLTTGGGNPVGDKLNSLTVGPRGPLLVQDVVFTDEMAHFDRERIPERVVHAKGAGAFGYFEVTHDITRYSKAKVFEHIGKRTPIAVRFSTVAGESGSADTVRDPRGFAVKFYTEDGNWDLVGNNTPIFFIRDALLFPSFIHSQKRNPQTHLKDPDMVWDFWSLRPESLHQVSFLFSDRGIPDGHRHMNGYGSHTFKLVNANGEAVYCKFHYKTDQGIKNLSVEDAARLAHEDPDYGLRDLFNAIATGNYPSWTLYIQVMTFSEAEIFPFNPFDLTKVWPHGDYPLIPVGKLVLNRNPVNYFAEVEQLAFDPSNMPPGIEPSPDKMLQGRLFAYPDTHRHRLGPNYLQIPVNCPYRARVANYQRDGPMCMMDNQGGAPNYYPNSFSAPEHQPSALEHRTHFSGDVQRFNSANDDNVTQVRTFYLKVLNEEQRKRLCENIAGHLKDAQLFIQKKAVKNFSDVHPEYGSRIQALLDKYNEEKPKNAVHTYVQHGSHLSAREKANL
modifications: FITC label
notes: protein labelled with FITC and delivered into CHO cells
With B1, in the test on CHO cells, the “delivery of labelled protein into cells” value is on record as “successfully delivered”.
